Measured values published in ChEMBL document CHEMBL4145500, “First homology model of Plasmodium falciparum glucose-6-phosphate dehydrogenase: Discovery of selective substrate analog-based inhibitors as novel antimalarial agents” (Eur J Med Chem, 2018).

Columns and labels:
[1] = molecular target: T1, Glucose-6-phosphate 1-dehydrogenase (Homo sapiens, UniProt P11413); experiment: Competitive inhibition of recombinant full length human G6PD expressed in Escherichia coli HB351 using G6P as substrate in presence of NADP+ by Lineweaver-Burk plot analysis
T1 sequence (P11413 whole entry): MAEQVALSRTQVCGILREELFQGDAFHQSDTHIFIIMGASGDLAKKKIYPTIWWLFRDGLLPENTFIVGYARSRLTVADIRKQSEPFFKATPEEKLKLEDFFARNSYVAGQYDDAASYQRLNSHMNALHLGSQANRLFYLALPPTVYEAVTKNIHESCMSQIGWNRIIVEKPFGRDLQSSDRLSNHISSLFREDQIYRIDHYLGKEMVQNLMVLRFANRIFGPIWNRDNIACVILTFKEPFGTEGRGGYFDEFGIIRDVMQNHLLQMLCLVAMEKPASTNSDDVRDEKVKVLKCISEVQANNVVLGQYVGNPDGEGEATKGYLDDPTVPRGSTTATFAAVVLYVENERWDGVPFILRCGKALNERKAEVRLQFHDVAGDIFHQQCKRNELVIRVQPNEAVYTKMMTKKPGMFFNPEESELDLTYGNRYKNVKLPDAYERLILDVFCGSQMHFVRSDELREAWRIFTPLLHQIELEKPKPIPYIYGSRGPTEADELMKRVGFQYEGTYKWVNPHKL

[2] = molecular target: T2, Bifunctional glucose-6-phosphate 1-dehydrogenase/6-phosphogluconolactonase (Plasmodium falciparum (isolate 3D7), UniProt Q8IKU0); experiment: Competitive inhibition of Plasmodium falciparum G6PD-6PGL using G6P as substrate in presence of NADP+ by Lineweaver-Burk plot analysis
T2 sequence (Q8IKU0 whole entry): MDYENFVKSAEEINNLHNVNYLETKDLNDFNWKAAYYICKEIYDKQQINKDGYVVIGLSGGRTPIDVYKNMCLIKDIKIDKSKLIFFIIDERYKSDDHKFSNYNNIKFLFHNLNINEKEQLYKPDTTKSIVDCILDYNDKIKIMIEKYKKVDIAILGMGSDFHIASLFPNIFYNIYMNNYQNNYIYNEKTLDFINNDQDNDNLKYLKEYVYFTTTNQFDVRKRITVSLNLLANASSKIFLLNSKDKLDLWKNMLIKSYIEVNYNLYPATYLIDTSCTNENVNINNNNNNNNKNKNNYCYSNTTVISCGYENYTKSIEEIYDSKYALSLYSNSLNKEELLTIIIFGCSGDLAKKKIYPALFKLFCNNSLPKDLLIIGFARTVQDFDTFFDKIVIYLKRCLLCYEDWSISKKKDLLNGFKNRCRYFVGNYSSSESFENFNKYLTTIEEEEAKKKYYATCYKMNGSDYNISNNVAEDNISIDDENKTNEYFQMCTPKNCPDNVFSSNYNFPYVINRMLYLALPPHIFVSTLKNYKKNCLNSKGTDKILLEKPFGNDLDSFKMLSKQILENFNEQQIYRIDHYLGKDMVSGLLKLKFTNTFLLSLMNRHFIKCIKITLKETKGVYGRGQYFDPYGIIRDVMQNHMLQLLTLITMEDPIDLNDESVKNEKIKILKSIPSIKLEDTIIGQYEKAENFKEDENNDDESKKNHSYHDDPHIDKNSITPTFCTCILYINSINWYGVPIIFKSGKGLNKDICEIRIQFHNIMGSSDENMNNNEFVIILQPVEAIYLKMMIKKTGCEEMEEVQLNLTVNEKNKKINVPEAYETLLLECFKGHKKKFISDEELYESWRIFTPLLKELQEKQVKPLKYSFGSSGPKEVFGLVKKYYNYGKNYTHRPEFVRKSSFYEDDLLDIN

[3] = molecular target: T1, Glucose-6-phosphate 1-dehydrogenase; experiment: Inhibition of recombinant full length human G6PD expressed in Escherichia coli HB351 using G6P as substrate in presence of NADP+ by spectrofluorimetric analysis
[4] = Cytotoxicity against human HepG2 cells assessed as cell survival at 0.2 to 1 mM after 24 hrs by EZ4U staining-based spectrophotometric analysis relative to control; settings: read-out: Survival
[5] = Selectivity index, ratio of Ki for recombinant full length human G6PD to Ki for Plasmodium falciparum G6PD-6PGL
Plasmodium falciparum = experiment: Antiparasitic activity against Plasmodium falciparum Dd2 clone MRA-150 synchronized ring stage after 48 hrs by PicoGreen dye based microfluorimetric analysis; format: functional, organism-based; settings: Dd2 clone MRA-150, 48 h
[6] = molecular target: T2, Bifunctional glucose-6-phosphate 1-dehydrogenase/6-phosphogluconolactonase; experiment: Inhibition of Plasmodium falciparum G6PD-6PGL using G6P as substrate in presence of NADP+ by spectrofluorimetric analysis
[7] = Cytotoxicity against human HepG2 cells assessed as cell viability at 1.5 to 2 mM after 24 hrs by EZ4U staining-based spectrophotometric analysis relative to control; settings: read-out: Activity

Compound | IC50 [1] [µM] | IC50 [2] [µM] | Ki [3] [µM] | viability at 24 h, up to 1000 µM [4] [%] | Ratio Ki [5] | IC50 (Plasmodium falciparum) [µM] | Ki [6] [µM] | viability at 24 h, 2000 µM [7] [%]
CCN1CCC[C@@H]1CNC(=O)c1ccc2c(c1)NC(=O)c1cccc(C)c1S2 | > 80 | 0.19 | – | – | – | – | – | –
CO[C@H]1O[C@H](CSCCN)[C@@H](O)[C@H](O)[C@H]1O | – | – | > 2000 | > 80 | > 26 | 1750 | 76.1 | –
CO[C@H]1O[C@H](CS(=O)(=O)CCCNC(=N)N)[C@@H](O)[C@H](O)[C@H]1O | – | – | 22.3 | > 80 | 0.5 | 1570 | 42.9 | < 80
CO[C@H]1O[C@H](CNS(=O)(=O)CCNC(=N)N)[C@@H](O)[C@H](O)[C@H]1O | – | – | 16.8 | > 80 | 0.5 | 330 | 32.4 | < 80
CO[C@H]1O[C@H](CSCCC#N)[C@@H](O)[C@H](O)[C@H]1O | – | – | > 200 | > 80 | > 0.8 | 1020 | 259 | –
CO[C@H]1O[C@H](CSCCCN)[C@@H](O)[C@H](O)[C@H]1O | – | – | 129 | > 80 | 0.4 | > 2000 | 289 | < 80
CO[C@H]1O[C@H](CNS(=O)(=O)CCN)[C@@H](O)[C@H](O)[C@H]1O | – | – | > 400 | > 80 | > 18 | 1470 | 22.8 | –
CO[C@H]1O[C@H](CS(=O)(=O)CCC#N)[C@@H](O)[C@H](O)[C@H]1O | – | – | > 200 | > 80 | > 2.9 | 960 | 68.8 | –
CO[C@H]1O[C@H](CSCCNC(=N)N)[C@@H](O)[C@H](O)[C@H]1O | – | – | > 200 | > 80 | > 4.4 | 590 | 45.6 | –
CCN1CCC[C@@H]1CNC(=O)c1ccc2c(c1)NC(=O)/C(=C/c1ccccc1F)S2 | > 80 | 0.9 | – | – | – | – | – | –
CO[C@H]1O[C@H](CS(=O)(=O)CCCN)[C@@H](O)[C@H](O)[C@H]1O | – | – | 35.4 | > 80 | 1 | > 2000 | 34.4 | < 80
